Values of other authors in US7326706B2, “Pyrazine modulators of cannabinoid receptors” (Bristol-Myers Squibb Company, priority 2003, dated 2008).

Key:
[1] = chronic administration for two weeks
[2] = 16 week trial period

Structure (SMILES) | body weight [1] | body weight in human subjects [2]
Cc1c(C(=O)NN2CCCCC2)nn(-c2ccc(Cl)cc2Cl)c1-c1ccc(I)cc1 [AM-251] | substantial body weight reduction | –
Cc1c(C(=O)NN2CCCCC2)nn(-c2ccc(Cl)cc2Cl)c1-c1ccc(Cl)cc1 [SR-141716] | – | dose-dependently reduced body weight
